Data as given in patent US7109338B2, “1,2-disubstituted 1,4-dihydro-4-oxoquinoline compounds” (priority 1999, dated 2006).
≈ marks a conversion by molar mass, not a printed value.

Legend:
[1] = test system: Poliovirus type 1 (Polio 1, Sabin); test: microbe, parasite or virus in culture; type: cell-based
[2] = test system: echovirus type 11 (Echo 11, Gregory); test: In vitro anti-picornavirus activity (MTT), Echo 11; type: cell-based; conditions: HeLa-S3 cells, MTT method, 37° C.
[3] = test system: coxsackievirus type A7 (CA7); test: In vitro anti-picornavirus activity (MTT), CA7; type: cell-based; conditions: HeLa-S3 cells, MTT method, 37° C.
[4] = test system: coxsackievirus type B4 (CB4,JVB); test: In vitro anti-picornavirus activity (MTT), CB4; type: cell-based; conditions: HeLa cells, MTT method, 37° C.
HRV1A (E28) = test: Anti-rhinovirus activity (MTT), HRV1A; type: cell-based, human rhinovirus; parameters: Anti-Rhinovirus activity, HRV1A: unit not given here
[5] = test system: human rhinovirus type 1B (HRV 1B, B632); test: Anti-rhinovirus activity (MTT), HRV1B; type: cell-based; parameters: Anti-Rhinovirus activity, HRV1B: unit not given here; conditions: for IC50 HRV1B: HeLa (Ohio strain) cells, MTT method, 33° C.
HRV 2 (HGP) = test: Anti-rhinovirus activity (MTT), HRV2; type: cell-based, human rhinovirus; parameters: Anti-Rhinovirus activity, HRV2: unit not given here; conditions: for IC50 HRV2: HeLa (Ohio strain) cells, MTT method, 33° C.
HRV14 (1059) = test: Anti-rhinovirus activity (MTT), HRV14; type: cell-based, human rhinovirus; parameters: Anti-Rhinovirus activity, HRV14: unit not given here
HRV 89 (41617-Gallo) = test: Anti-rhinovirus activity (MTT), HRV89; type: cell-based, human rhinovirus; parameters: Anti-Rhinovirus activity, HRV89: unit not given here; conditions: for IC50 HRV89: HeLa (Ohio strain) cells, MTT method, 33° C.
HRV3(FEB) = test: Anti-rhinovirus spectrum (MTT), HRV3; type: cell-based, human rhinovirus; parameters: Anti-Rhinovirus activity, HRV3: unit not given here
HRV5 = test: Anti-rhinovirus spectrum (MTT), HRV5; type: cell-based, human rhinovirus; parameters: Anti-Rhinovirus activity, HRV5: unit not given here
HRV8(MRH) = test: Anti-rhinovirus spectrum (MTT), HRV8; type: cell-based, human rhinovirus; parameters: Anti-Rhinovirus activity, HRV8: unit not given here
HRV10 (204-CV14) = test: Anti-rhinovirus spectrum (MTT), HRV10; type: cell-based, human rhinovirus; parameters: Anti-Rhinovirus activity, HRV10: unit not given here
HRV13 (353) = test: Anti-rhinovirus spectrum (MTT), HRV13; type: cell-based, human rhinovirus; parameters: Anti-Rhinovirus activity, HRV13: unit not given here
HRV16 (11757) = test: Anti-rhinovirus spectrum (MTT), HRV16; type: cell-based, human rhinovirus; parameters: Anti-Rhinovirus activity, HRV16: unit not given here
HRV21 (47) = test: Anti-rhinovirus spectrum (MTT), HRV21; type: cell-based, human rhinovirus; parameters: Anti-Rhinovirus activity, HRV21: unit not given here
HRV29 (5582) = test: Anti-rhinovirus spectrum (MTT), HRV29; type: cell-based, human rhinovirus; parameters: Anti-Rhinovirus activity, HRV29: unit not given here
HRV31 (41F) = test: Anti-rhinovirus spectrum (MTT), HRV31; type: cell-based, human rhinovirus; parameters: Anti-Rhinovirus activity, HRV31: unit not given here
HRV32 (363) = test: Anti-rhinovirus spectrum (MTT), HRV32; type: cell-based, human rhinovirus; parameters: Anti-Rhinovirus activity, HRV32: unit not given here
HRV33 (1200) = test: Anti-rhinovirus spectrum (MTT), HRV33; type: cell-based, human rhinovirus; parameters: Anti-Rhinovirus activity, HRV33: unit not given here
HRV36 (342H) = test: Anti-rhinovirus spectrum (MTT), HRV36; type: cell-based, human rhinovirus; parameters: Anti-Rhinovirus activity, HRV36: unit not given here
HRV39 (209) = test: Anti-rhinovirus spectrum (MTT), HRV39; type: cell-based, human rhinovirus; parameters: Anti-Rhinovirus activity, HRV39: unit not given here
HRV41 (56110) = test: Anti-rhinovirus spectrum (MTT), HRV41; type: cell-based, human rhinovirus; parameters: Anti-Rhinovirus activity, HRV41: unit not given here
HRV50(A2#58) = test: Anti-rhinovirus spectrum (MTT), HRV50; type: cell-based, human rhinovirus; parameters: Anti-Rhinovirus activity, HRV50: unit not given here
HRV61 (6669-CV39) = test: Anti-rhinovirus spectrum (MTT), HRV61; type: cell-based, human rhinovirus; parameters: Anti-Rhinovirus activity, HRV61: unit not given here
[6] = test system: clinical isolate (89229T); test: microbe, parasite or virus in culture; type: cell-based, human rhinovirus; parameters: Anti-Rhinovirus activity, Clinical isolated strain: unit not given here
HeLa cells = test: Cytotoxicity (MTT, without virus), HeLa; conditions: HeLa, no virus, incubated for 4 days
HeLa-S3 cells = test: Cytotoxicity (MTT, without virus), HeLa-S3; conditions: HeLa-S3, no virus, incubated for 4 days
HeLa (Ohio strain)cells = test: Cytotoxicity (MTT, without virus), HeLa(Ohio); conditions: HeLa(Ohio), no virus, incubated for 4 days
[7] = HeLa (Ohio strain) cells, MTT method, 33° C.

Structure (SMILES): CCn1c2c(c(=O)c3cc(C(C)C)ccc31)Cc1cc(OC)c(C)cc1-2 [Compound B20]
- IC50 Polio 1 [1]: 0.40 µg/mL (≈ 1.15 µM)
- IC50 Echo 11 [2]: 0.28 µg/mL (≈ 0.806 µM)
- IC50 CA7 [3]: 1.4 µg/mL (≈ 4.03 µM)
- IC50 CB4 [4]: 0.60 µg/mL (≈ 1.73 µM)
- Anti-Rhinovirus activity, HRV1A (HRV1A (E28); HRV1A): >2.5
- IC50 HRV 1A (HRV1A (E28); [7]): >2.5 µg/mL
- Anti-Rhinovirus activity, HRV1B ([5]; HRV1B): 0.23
- IC50 HRV1B [5]: 0.23 µg/mL (≈ 0.662 µM)
- Anti-Rhinovirus activity, HRV2 (HRV 2 (HGP); HRV2): 0.19
- IC50 HRV2 (HRV 2 (HGP)): 0.19 µg/mL (≈ 0.547 µM)
- Anti-Rhinovirus activity, HRV14 (HRV14 (1059); HRV14): 0.51
- IC50 HRV 14 (HRV14 (1059); [7]): 0.51 µg/mL (≈ 1.47 µM)
- Anti-Rhinovirus activity, HRV89 (HRV 89 (41617-Gallo); HRV89): 0.18
- IC50 HRV89 (HRV 89 (41617-Gallo)): 0.18 µg/mL (≈ 0.518 µM)
- Anti-Rhinovirus activity, HRV3 (HRV3(FEB); HRV3): 0.50
- Anti-Rhinovirus activity, HRV5 (HRV5; HRV5): 0.23
- Anti-Rhinovirus activity, HRV8 (HRV8(MRH); HRV8): 0.29
- Anti-Rhinovirus activity, HRV10 (HRV10 (204-CV14); HRV10): 0.42
- Anti-Rhinovirus activity, HRV13 (HRV13 (353); HRV13): 0.13
- Anti-Rhinovirus activity, HRV16 (HRV16 (11757); HRV16): 0.44
- Anti-Rhinovirus activity, HRV21 (HRV21 (47); HRV21): 0.14
- Anti-Rhinovirus activity, HRV29 (HRV29 (5582); HRV29): 0.44
- Anti-Rhinovirus activity, HRV31 (HRV31 (41F); HRV31): 0.18
- Anti-Rhinovirus activity, HRV32 (HRV32 (363); HRV32): 0.29
- Anti-Rhinovirus activity, HRV33 (HRV33 (1200); HRV33): 0.097
- Anti-Rhinovirus activity, HRV36 (HRV36 (342H); HRV36): 0.20
- Anti-Rhinovirus activity, HRV39 (HRV39 (209); HRV39): 0.35
- Anti-Rhinovirus activity, HRV41 (HRV41 (56110); HRV41): 0.12
- Anti-Rhinovirus activity, HRV50 (HRV50(A2#58); HRV50): 0.18
- Anti-Rhinovirus activity, HRV61 (HRV61 (6669-CV39); HRV61): 0.31
- Anti-Rhinovirus activity, Clinical isolated strain ([6]; Clinical isolated strain): 0.49
- Cytotoxicity CC50 HeLa (HeLa cells): >2.5 µg/mL
- Cytotoxicity CC50 HeLa-S3 (HeLa-S3 cells): >2.5 µg/mL
- Cytotoxicity CC50 HeLa(Ohio) (HeLa (Ohio strain)cells): >2.5 µg/mL

Structure (SMILES): Cc1c(-c2ccccc2)n(-c2cccc(F)c2)c2ccc(C(C)C)cc2c1=O [Compound A322]
- Anti-Rhinovirus activity, HRV1A (HRV1A (E28); Table VII, rhinovirus serotype HRV1A, same method as above): >1.0
- IC50 HRV1B [5]: 0.18 µg/mL (≈ 0.485 µM)
- Anti-Rhinovirus activity, HRV1B ([5]; Table VII, rhinovirus serotype HRV1B): 0.18
- IC50 HRV2 (HRV 2 (HGP)): 0.030 µg/mL (≈ 0.0808 µM)
- Anti-Rhinovirus activity, HRV2 (HRV 2 (HGP); Table VII, rhinovirus serotype HRV2): 0.030
- Anti-Rhinovirus activity, HRV14 (HRV14 (1059); Table VII, rhinovirus serotype HRV14): >1.0
- IC50 HRV89 (HRV 89 (41617-Gallo)): 0.034 µg/mL (≈ 0.0915 µM)
- Anti-Rhinovirus activity, HRV89 (HRV 89 (41617-Gallo); Table VII, rhinovirus serotype HRV89): 0.034
- Anti-Rhinovirus activity, HRV3 (HRV3(FEB); Table VII, rhinovirus serotype HRV3): >1.0
- Anti-Rhinovirus activity, HRV5 (HRV5; Table VII, rhinovirus serotype HRV5): >1.0
- Anti-Rhinovirus activity, HRV8 (HRV8(MRH); Table VII, rhinovirus serotype HRV8): >1.0
- Anti-Rhinovirus activity, HRV10 (HRV10 (204-CV14); Table VII, rhinovirus serotype HRV10): 0.013
- Anti-Rhinovirus activity, HRV13 (HRV13 (353); Table VII, rhinovirus serotype HRV13): 0.029
- Anti-Rhinovirus activity, HRV16 (HRV16 (11757); Table VII, rhinovirus serotype HRV16): 0.030
- Anti-Rhinovirus activity, HRV21 (HRV21 (47); Table VII, rhinovirus serotype HRV21): 0.048
- Anti-Rhinovirus activity, HRV29 (HRV29 (5582); Table VII, rhinovirus serotype HRV29): 0.080
- Anti-Rhinovirus activity, HRV31 (HRV31 (41F); Table VII, rhinovirus serotype HRV31): 0.045
- Anti-Rhinovirus activity, HRV32 (HRV32 (363); Table VII, rhinovirus serotype HRV32): 0.020
- Anti-Rhinovirus activity, HRV33 (HRV33 (1200); Table VII, rhinovirus serotype HRV33): 0.17
- Anti-Rhinovirus activity, HRV36 (HRV36 (342H); Table VII, rhinovirus serotype HRV36): 0.085
- Anti-Rhinovirus activity, HRV39 (HRV39 (209); Table VII, rhinovirus serotype HRV39): 0.012
- Anti-Rhinovirus activity, HRV41 (HRV41 (56110); Table VII, rhinovirus serotype HRV41): 0.034
- Anti-Rhinovirus activity, HRV50 (HRV50(A2#58); Table VII, rhinovirus serotype HRV50): 0.023
- Anti-Rhinovirus activity, HRV61 (HRV61 (6669-CV39); Table VII, rhinovirus serotype HRV61): 0.29
- Anti-rhinovirus activity Clinically isolated strain ([6]; Table VII, clinical isolate (89229T)): 0.017
- Cytotoxicity CC50 HeLa(Ohio) (HeLa (Ohio strain)cells): >1 µg/mL
